In article PMC6120666 (The EMBO Journal, 2018):

Columns and labels:
Assay in all cases: Drug affinity chromatography with c-ponatinib and LC-MS/MS (ponatinib interactome)
Format in all cases: binding
[1] = biological target: T1, proteins of U2OS cell lysate (Homo sapiens, UniProt Q13435)
T1 construct: Proteins enriched by c-ponatinib from U2OS cell lysate; endogenous in cells; host or cells: U2OS cell lysate
Summary of the method: (§1)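 U2OS cell lysate in NP-40 lysis buffer (2 mg protein per pulldown) was incubated with amine-derivatized NHS beads for 2 h at 4 °C. Bound proteins were washed, eluted with 100 mM formic acid, reduced, alkylated and trypsin-digested, then identified by nano-UPLC–MS/MS on Orbitrap instruments with a 60 min gradient.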

[2] = biological target: T2, proteins of U2OS cell lysate (Homo sapiens, UniProt O75964)
T2 construct: Proteins enriched by c-ponatinib from U2OS cell lysate; endogenous in cells; host or cells: U2OS cell lysate
Summary of the method: as §1

[3] = biological target: T3, proteins of U2OS cell lysate (Homo sapiens, UniProt Q9Y230)
T3 construct: Proteins enriched by c-ponatinib from U2OS cell lysate; endogenous in cells; host or cells: U2OS cell lysate
Summary of the method: as §1

[4] = biological target: T4, proteins of U2OS cell lysate (Homo sapiens, UniProt P24539)
T4 construct: Proteins enriched by c-ponatinib from U2OS cell lysate; endogenous in cells; host or cells: U2OS cell lysate
Summary of the method: as §1

[5] = biological target: T5, proteins of U2OS cell lysate (Homo sapiens, UniProt Q9NX63)
T5 construct: Proteins enriched by c-ponatinib from U2OS cell lysate; endogenous in cells; host or cells: U2OS cell lysate
Summary of the method: as §1

[6] = biological target: T6, proteins of U2OS cell lysate (Homo sapiens, UniProt Q13347)
T6 construct: Proteins enriched by c-ponatinib from U2OS cell lysate; endogenous in cells; host or cells: U2OS cell lysate
Summary of the method: as §1

[7] = biological target: T7, proteins of U2OS cell lysate (Homo sapiens, UniProt P49327)
T7 construct: Proteins enriched by c-ponatinib from U2OS cell lysate; endogenous in cells; host or cells: U2OS cell lysate
Summary of the method: as §1

[8] = biological target: T8, proteins of U2OS cell lysate (Homo sapiens, UniProt O00159)
T8 construct: Proteins enriched by c-ponatinib from U2OS cell lysate; endogenous in cells; host or cells: U2OS cell lysate
Summary of the method: as §1

[9] = biological target: T9, proteins of U2OS cell lysate (Homo sapiens, UniProt Q9Y262)
T9 construct: Proteins enriched by c-ponatinib from U2OS cell lysate; endogenous in cells; host or cells: U2OS cell lysate
Summary of the method: as §1

[10] = biological target: T10, proteins of U2OS cell lysate (Homo sapiens, UniProt P04049)
T10 construct: Proteins enriched by c-ponatinib from U2OS cell lysate; endogenous in cells; host or cells: U2OS cell lysate
Summary of the method: as §1

[11] = biological target: T11, proteins of U2OS cell lysate (Homo sapiens, UniProt Q99832)
T11 construct: Proteins enriched by c-ponatinib from U2OS cell lysate; endogenous in cells; host or cells: U2OS cell lysate
Summary of the method: as §1

[12] = biological target: T12, proteins of U2OS cell lysate (Homo sapiens, UniProt Q01130)
T12 construct: Proteins enriched by c-ponatinib from U2OS cell lysate; endogenous in cells; host or cells: U2OS cell lysate
Summary of the method: as §1

[13] = biological target: T13, proteins of U2OS cell lysate (Homo sapiens, UniProt Q9Y6K9)
T13 construct: Proteins enriched by c-ponatinib from U2OS cell lysate; endogenous in cells; host or cells: U2OS cell lysate
Summary of the method: as §1

[14] = biological target: T14, proteins of U2OS cell lysate (Homo sapiens, UniProt Q9BWU1)
T14 construct: Proteins enriched by c-ponatinib from U2OS cell lysate; endogenous in cells; host or cells: U2OS cell lysate
Summary of the method: as §1

[15] = biological target: T15, proteins of U2OS cell lysate (Homo sapiens, UniProt O95816)
T15 construct: Proteins enriched by c-ponatinib from U2OS cell lysate; endogenous in cells; host or cells: U2OS cell lysate
Summary of the method: as §1

[16] = biological target: T16, proteins of U2OS cell lysate (Homo sapiens, UniProt P83436)
T16 construct: Proteins enriched by c-ponatinib from U2OS cell lysate; endogenous in cells; host or cells: U2OS cell lysate
Summary of the method: as §1

[17] = biological target: T17, proteins of U2OS cell lysate (Homo sapiens, UniProt P52907)
T17 construct: Proteins enriched by c-ponatinib from U2OS cell lysate; endogenous in cells; host or cells: U2OS cell lysate
Summary of the method: as §1

[18] = biological target: T18, proteins of U2OS cell lysate (Homo sapiens, UniProt Q13247)
T18 construct: Proteins enriched by c-ponatinib from U2OS cell lysate; endogenous in cells; host or cells: U2OS cell lysate
Summary of the method: as §1

[19] = biological target: T19, proteins of U2OS cell lysate (Homo sapiens, UniProt Q9BUF5)
T19 construct: Proteins enriched by c-ponatinib from U2OS cell lysate; endogenous in cells; host or cells: U2OS cell lysate
Summary of the method: as §1

T10 sequence (P04049 whole entry): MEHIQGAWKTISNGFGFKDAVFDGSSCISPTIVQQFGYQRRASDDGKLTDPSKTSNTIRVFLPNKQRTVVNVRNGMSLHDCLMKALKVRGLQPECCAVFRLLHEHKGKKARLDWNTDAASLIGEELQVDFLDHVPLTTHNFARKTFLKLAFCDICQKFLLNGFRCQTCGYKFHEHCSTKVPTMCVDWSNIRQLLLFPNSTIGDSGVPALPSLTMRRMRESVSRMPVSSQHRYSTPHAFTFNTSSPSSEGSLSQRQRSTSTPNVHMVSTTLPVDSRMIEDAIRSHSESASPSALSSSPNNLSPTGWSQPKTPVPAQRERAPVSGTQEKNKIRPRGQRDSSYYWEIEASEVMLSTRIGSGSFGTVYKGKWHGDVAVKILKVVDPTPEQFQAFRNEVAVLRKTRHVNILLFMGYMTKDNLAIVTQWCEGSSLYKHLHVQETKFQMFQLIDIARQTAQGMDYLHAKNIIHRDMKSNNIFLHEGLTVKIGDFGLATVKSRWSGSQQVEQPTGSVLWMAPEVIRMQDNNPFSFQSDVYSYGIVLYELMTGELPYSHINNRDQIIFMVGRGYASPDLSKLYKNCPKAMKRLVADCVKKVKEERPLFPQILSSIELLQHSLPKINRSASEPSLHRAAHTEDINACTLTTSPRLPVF
T14 sequence (Q9BWU1 whole entry): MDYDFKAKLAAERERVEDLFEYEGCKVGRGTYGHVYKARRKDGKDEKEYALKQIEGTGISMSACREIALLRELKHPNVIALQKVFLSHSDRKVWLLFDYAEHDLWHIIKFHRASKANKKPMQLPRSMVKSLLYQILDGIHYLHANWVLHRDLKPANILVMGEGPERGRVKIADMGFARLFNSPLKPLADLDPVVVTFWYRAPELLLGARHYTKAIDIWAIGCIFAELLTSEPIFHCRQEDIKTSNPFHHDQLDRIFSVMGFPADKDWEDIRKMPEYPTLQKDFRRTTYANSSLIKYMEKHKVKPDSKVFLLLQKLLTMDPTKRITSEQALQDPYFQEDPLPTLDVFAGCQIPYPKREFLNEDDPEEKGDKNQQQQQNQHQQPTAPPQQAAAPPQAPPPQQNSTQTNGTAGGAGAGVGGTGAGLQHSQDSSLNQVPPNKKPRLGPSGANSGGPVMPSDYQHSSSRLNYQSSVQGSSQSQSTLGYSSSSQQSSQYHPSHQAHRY
T18 sequence (Q13247 whole entry): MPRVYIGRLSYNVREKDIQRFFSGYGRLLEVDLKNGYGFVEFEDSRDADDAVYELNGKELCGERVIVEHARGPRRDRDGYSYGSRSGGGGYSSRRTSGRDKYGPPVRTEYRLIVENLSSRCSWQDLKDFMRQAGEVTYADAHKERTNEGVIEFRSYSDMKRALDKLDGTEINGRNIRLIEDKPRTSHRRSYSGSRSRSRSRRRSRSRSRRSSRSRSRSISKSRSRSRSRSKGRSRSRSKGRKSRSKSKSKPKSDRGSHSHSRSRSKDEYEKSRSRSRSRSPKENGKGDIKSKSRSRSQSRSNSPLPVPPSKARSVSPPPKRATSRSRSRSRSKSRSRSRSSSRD
T2 sequence (O75964 whole entry): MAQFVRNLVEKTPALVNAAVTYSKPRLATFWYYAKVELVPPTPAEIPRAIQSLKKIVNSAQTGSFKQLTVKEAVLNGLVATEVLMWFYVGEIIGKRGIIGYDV
T4 sequence (P24539 43-256): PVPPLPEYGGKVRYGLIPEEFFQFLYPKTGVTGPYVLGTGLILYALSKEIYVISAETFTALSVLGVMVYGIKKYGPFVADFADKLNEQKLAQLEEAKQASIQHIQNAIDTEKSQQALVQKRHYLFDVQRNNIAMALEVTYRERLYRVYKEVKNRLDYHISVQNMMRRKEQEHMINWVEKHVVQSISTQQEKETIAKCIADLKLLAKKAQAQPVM
T1 sequence (Q13435 whole entry): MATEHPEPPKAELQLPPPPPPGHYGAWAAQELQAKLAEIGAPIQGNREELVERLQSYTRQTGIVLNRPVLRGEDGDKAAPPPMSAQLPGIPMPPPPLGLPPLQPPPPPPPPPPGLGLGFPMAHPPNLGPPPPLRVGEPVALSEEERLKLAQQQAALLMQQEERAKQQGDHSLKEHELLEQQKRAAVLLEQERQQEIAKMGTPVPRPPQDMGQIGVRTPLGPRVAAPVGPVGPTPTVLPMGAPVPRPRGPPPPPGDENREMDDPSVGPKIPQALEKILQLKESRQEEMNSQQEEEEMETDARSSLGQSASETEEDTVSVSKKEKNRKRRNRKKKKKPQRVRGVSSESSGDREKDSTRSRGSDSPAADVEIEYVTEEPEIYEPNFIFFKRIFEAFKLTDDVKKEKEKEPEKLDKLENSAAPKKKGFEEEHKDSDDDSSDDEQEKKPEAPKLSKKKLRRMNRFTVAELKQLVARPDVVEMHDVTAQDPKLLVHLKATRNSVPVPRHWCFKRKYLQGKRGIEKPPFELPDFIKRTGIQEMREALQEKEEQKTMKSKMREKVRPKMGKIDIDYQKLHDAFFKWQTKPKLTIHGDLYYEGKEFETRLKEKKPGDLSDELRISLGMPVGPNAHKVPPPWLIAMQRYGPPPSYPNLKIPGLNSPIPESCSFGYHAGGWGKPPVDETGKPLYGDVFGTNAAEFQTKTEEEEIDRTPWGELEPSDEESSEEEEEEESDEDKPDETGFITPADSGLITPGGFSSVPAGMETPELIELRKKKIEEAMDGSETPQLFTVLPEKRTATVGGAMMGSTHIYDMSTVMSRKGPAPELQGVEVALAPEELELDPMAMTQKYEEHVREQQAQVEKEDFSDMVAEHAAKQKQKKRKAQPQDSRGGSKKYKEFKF
T13 sequence (Q9Y6K9 whole entry): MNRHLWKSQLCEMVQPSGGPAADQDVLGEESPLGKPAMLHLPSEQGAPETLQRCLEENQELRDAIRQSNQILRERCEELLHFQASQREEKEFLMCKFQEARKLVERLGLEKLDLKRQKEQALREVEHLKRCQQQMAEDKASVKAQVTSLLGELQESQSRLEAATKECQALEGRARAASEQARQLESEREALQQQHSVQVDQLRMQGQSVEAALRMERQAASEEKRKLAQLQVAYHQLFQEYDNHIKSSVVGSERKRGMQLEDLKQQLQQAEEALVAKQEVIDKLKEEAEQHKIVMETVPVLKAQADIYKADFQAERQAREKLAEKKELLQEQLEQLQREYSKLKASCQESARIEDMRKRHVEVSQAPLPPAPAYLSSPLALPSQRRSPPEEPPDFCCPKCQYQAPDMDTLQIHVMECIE
T15 sequence (O95816 whole entry): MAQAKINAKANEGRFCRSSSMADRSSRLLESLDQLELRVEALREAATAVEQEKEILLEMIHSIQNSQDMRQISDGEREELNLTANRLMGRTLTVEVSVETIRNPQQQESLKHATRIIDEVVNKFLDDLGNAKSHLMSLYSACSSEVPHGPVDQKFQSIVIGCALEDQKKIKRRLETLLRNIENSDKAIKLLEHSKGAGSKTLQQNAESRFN
T11 sequence (Q99832 whole entry): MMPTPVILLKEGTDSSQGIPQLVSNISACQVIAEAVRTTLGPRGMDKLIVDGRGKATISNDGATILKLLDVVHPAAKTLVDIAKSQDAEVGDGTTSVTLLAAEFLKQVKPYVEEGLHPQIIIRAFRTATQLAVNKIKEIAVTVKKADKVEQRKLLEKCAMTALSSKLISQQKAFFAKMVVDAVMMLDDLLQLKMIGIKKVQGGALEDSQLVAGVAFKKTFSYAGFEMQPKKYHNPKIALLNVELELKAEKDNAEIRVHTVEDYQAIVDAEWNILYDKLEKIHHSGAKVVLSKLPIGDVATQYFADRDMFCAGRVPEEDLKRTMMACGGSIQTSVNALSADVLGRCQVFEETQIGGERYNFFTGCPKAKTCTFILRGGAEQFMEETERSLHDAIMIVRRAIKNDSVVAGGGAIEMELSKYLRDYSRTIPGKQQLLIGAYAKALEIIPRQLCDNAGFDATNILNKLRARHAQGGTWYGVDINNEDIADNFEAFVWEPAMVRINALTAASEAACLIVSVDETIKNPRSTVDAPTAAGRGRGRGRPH
T5 sequence (Q9NX63 whole entry): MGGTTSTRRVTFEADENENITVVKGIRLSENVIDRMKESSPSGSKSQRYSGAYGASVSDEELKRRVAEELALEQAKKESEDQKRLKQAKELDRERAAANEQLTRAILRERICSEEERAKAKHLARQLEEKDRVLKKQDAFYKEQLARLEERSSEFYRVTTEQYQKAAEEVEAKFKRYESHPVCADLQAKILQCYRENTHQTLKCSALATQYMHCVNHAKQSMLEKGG
T9 sequence (Q9Y262 whole entry): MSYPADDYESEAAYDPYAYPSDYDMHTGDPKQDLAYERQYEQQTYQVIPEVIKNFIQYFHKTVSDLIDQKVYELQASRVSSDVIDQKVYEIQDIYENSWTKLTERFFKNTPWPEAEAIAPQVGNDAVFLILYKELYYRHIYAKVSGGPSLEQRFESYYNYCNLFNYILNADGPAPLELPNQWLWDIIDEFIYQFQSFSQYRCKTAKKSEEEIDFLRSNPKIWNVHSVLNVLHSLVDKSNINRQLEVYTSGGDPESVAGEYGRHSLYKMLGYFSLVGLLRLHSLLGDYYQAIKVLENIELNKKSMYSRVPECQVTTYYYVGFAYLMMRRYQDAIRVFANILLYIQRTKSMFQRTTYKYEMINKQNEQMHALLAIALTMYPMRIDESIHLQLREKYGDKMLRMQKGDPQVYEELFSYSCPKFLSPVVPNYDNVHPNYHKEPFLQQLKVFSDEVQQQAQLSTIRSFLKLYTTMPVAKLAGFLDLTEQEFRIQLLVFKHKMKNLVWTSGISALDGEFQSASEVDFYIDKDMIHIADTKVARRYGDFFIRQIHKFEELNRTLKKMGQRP
T12 sequence (Q01130 whole entry): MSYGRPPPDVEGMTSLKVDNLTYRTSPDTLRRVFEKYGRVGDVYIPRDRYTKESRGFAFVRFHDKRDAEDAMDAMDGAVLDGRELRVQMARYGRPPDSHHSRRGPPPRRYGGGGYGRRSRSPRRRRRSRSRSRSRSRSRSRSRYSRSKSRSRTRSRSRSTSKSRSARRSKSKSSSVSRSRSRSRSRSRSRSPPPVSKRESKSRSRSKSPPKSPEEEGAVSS

In the case of `Cc1ccc(C(=O)Nc2ccc(CN3CCN(C)CC3)c(C(F)(F)F)c2)cc1C#Cc1cnc2cccnn12` [PON], the “Average LFQ PON_WT” value ([1]; SF3B2, Splicing factor 3B subunit 2) is reported as 22.8369, the “Average LFQ PON_WT” value ([2]; ATP5L, ATP synthase subunit g, mitochondrial) is reported as 22.9891 and the “Average LFQ PON_WT” value ([3]; RUVBL2, RuvB-like 2) is reported as 22.2484. For the same molecule, the “Average LFQ PON_WT” value ([4]; ATP5F1, ATP synthase subunit b, mitochondrial) was 22.7408, the “Average LFQ PON_WT” value ([5]; CHCHD3, Coiled-coil-helix-coiled-coil-helix domain-containing protein 3, mitochondrial) was 22.5984 and the “Average LFQ PON_WT” value ([6]; EIF3I, Eukaryotic translation initiation factor 3 subunit I) was 22.8398. The “Average LFQ PON_WT” value ([7]; FASN, Fatty acid synthase) was 22.4378, the “Average LFQ PON_WT” value ([8]; MYO1C, Unconventional myosin-Ic) was 21.7408 and the “Average LFQ PON_WT” value ([9]; EIF3L, Eukaryotic translation initiation factor 3 subunit L) was 22.8981. For the same molecule, the “Average LFQ PON_WT” value ([10]; RAF1, RAF proto-oncogene serine/threonine-protein kinase) was 21.5684, the “Average LFQ PON_WT” value ([11]; CCT7, T-complex protein 1 subunit eta) was 22.9495 and the “Average LFQ PON_WT” value ([12]; SRSF2, Serine/arginine-rich splicing factor 2) was 22.8743. The “Average LFQ PON_WT” value ([13]; IKBKG, NF-kappa-B essential modulator) was 21.7256, the “Average LFQ PON_WT” value ([14]; CDK19, Cyclin-dependent kinase 19) was 21.5435 and the “Average LFQ PON_WT” value ([15]; BAG2, BAG family molecular chaperone regulator 2) was 22.6462. For the same molecule, the “Average LFQ PON_WT” value ([16]; COG7, Conserved oligomeric Golgi complex subunit 7) was 22.1578, the “Average LFQ PON_WT” value ([17]; CAPZA1, F-actin-capping protein subunit alpha-1) was 21.8548 and the “Average LFQ PON_WT” value ([18]; SRSF6, Serine/arginine-rich splicing factor 6) was 21.8714. For the same molecule, the “Average LFQ PON_WT” value ([19]; TUBB6, Tubulin beta-6 chain) was 22.6671.
In the case of `Cc1ccc(C(=O)Nc2ccc(CN3CCN(CCCN)CC3)c(C(F)(F)F)c2)cc1C#Cc1cnc2cccnn12` [c-ponatinib, reference compound], the “Average LFQ intensity” value ([1]; captured protein SF3B2, Rank 136) is reported as 22.8369, the “Average LFQ intensity” value ([2]; captured protein ATP5L, Rank 125) is reported as 22.9891 and the “Average LFQ intensity” value ([3]; captured protein RUVBL2, Rank 173) is reported as 22.2484. The “Average LFQ intensity” value ([4]; captured protein ATP5F1, Rank 144) was 22.7408, the “Average LFQ intensity” value ([5]; captured protein CHCHD3, Rank 154) was 22.5984 and the “Average LFQ intensity” value ([6]; captured protein EIF3I, Rank 135) was 22.8398. The “Average LFQ intensity” value ([7]; captured protein FASN, Rank 161) was 22.4378, the “Average LFQ intensity” value ([8]; captured protein MYO1C, Rank 209) was 21.7408 and the “Average LFQ intensity” value ([9]; captured protein EIF3L, Rank 130) was 22.8981. The “Average LFQ intensity” value ([10]; captured protein RAF1, Rank 223) was 21.5685, the “Average LFQ intensity” value ([11]; captured protein CCT7, Rank 127) was 22.9495 and the “Average LFQ intensity” value ([12]; captured protein SRSF2, Rank 132) was 22.8743. For the same molecule, the “Average LFQ intensity” value ([13]; captured protein IKBKG, Rank 212) was 21.7256, the “Average LFQ intensity” value ([14]; captured protein CDK19, Rank 226) was 21.5435 and the “Average LFQ intensity” value ([15]; captured protein BAG2, Rank 152) was 22.6462. The “Average LFQ intensity” value ([16]; captured protein COG7, Rank 182) was 22.1578, the “Average LFQ intensity” value ([17]; captured protein CAPZA1, Rank 200) was 21.8548 and the “Average LFQ intensity” value ([18]; captured protein SRSF6, Rank 196) was 21.8714. The “Average LFQ intensity” value ([19]; captured protein TUBB6, Rank 151) was 22.6671.
